# Laboratory results taken from US20220267373A1, “SELF-ASSEMBLING PEPTIDES AND HYDROGELS” (UNIVERSITY OF VIRGINIA PATENT FOUNDATION, priority 2018, published 2022).
# Read-outs that look alike come from different tables or passages of the source. Where no end group is shown, it is not given here.
# Legend:
# [1] = system: MADM OPC line; experiment: Hydrogel cell encapsulation and 3D culture (ATP, DNA, live/dead, immunostaining); assay type: cell-based
# Protocol: OPCs were cultured in DMEM with high glucose, 4 mM L-glutamine, 1 mM sodium pyruvate (Life Technologies) with N2 and B27 supplement (Life Technologies), 1% penicillin-streptomycin (Life Technologies), 10 ng/mL mouse PDGFA-AA (eBioscience), and 50 ng/mL human NT3 (Peprotech). Cell media was changed every 2 days, and cells were grown to 90% confluency and passaged using 0.25% trypsin in Dulbecco's phosphate buffered saline (PBS). Cells were cultured in 5% CO2 atmosphere, and 21% O2 at 37° C.
# Hydrogels for cell encapsulation were made using 1.5 wt % AYFIL peptide in PBS. 25 μL hydrogels with 5×10^6 cells/mL were made by mixing cells and peptides and then transferred to a cell incubator for 10 minutes at 37° C. at 100% humidity. OPC proliferation media was then added to the hydrogels, and changed every 2 days. Hydrogels were stored at −80° C. in lysis buffer before running ATP or DNA quantification assays. For quantification, gels were homogenized in lysis buffer using a hand grinder and were measured using the CellTiter-Glo luminescent Cell Viability Assay (Promega, United States) and the QuantiT PicoGreen dsDNA assay (ThermoFisher) according to manufacturer protocols.
# After 2 days of culture, gels were fixed in 4% paraformaldehyde for 20 minutes at 4° C. and rinsed with PBS before permeabilizing overnight with 0.3% triton-X in PBS. Hydrogels were rinsed in PBS, and then incubated with 10 μg/mL stock solution of Alexa Fluor 568 Phalloidin (ThermoFisher) in 1% BSA in PBS overnight. 4′,6-diamidino-2-phenylindole (DAPI) was added to stain cell nuclei during the last 20 minutes of incubation. Gels were then washed 4×20 min in PBS and imaged with a Zeiss LSM 780 confocal microscope. 100 μm z-stack images were collected with a z-spacing distance of 1 μm.
# [2] = Hydrogel formation (gelation) of peptides dissolved in PBS with pH adjustment; assay type: physicochemical; conditions: for hydrogel formation: dissolved in PBS at pH 7.4 and 1.5 wt %; for gelation as the pH was raised: pH raised from low pH
# Protocol: (§1) Lyophilized peptides were dissolved in PBS to a final concentration of 1.5 or 3 wt. %. The pH of the peptide solutions was adjusted by drop-wise addition of minute amounts of HCl or NaOH. Rheological tests were performed on 50 μL hydrogels 30 minutes after induction of gelation (Anton Par, P25S 25 mm parallel steel plates) with a measuring gap of 250 μm. Storage (G′) and loss (G″) moduli were measured as a function of strain (%) ranging from 0.01 to 100% with a constant frequency of 10 rad/s. Frequency sweeps were performed at angular frequencies ranging from 1 to 100 rad/s at 0.1% strain. For recovery experiments, a step-time procedure was utilized with a series of applied strains at a fixed oscillation frequency of 10 rad/s. Initially, samples were applied with 0.01% strain for 100 s followed immediately by a 100% strain for 50 s, and cycled 5 times.
# The secondary structural content of pentapeptide specimens was probed by ATR-FTIR spectroscopy. Samples of the pentapeptides of interest were generated via solid-phase peptide synthesis methods. An alanine (Ala) scan of KYFIL was used to assess each AA's contribution to gelation, wherein individual amino acids (AAs) were sequentially exchanged with Ala or Val. Ala and Val were the substituted residues of choice, as they either eliminate a side-chain beyond the Cβ atom (Ala) or otherwise would be expected to minimally alter the main-chain conformation (Val). As uncharged and relatively compact residues, Ala and Val would not be expected to introduce (confounding) electrostatic or steric effects. All pentapeptides were dissolved in phosphate-buffered saline (PBS) at a concentration of 1.5% or 3% (weight/volume) and adjusted to a pH of 7.4. Gelling peptides (solid lines, FIG. 2) display a strong amide I absorbance at ≈1629 cm^−1, arising from vibrational modes of the amide group; these vibrations, in the region of 1700→1600 cm^−1, correspond to stretching of the C═O and C—N bonds, as well as bending of the N—H. This region of the IR spectrum is particularly sensitive to variations in secondary structural conformation and, in the case of our pentapeptide samples, is indicative of β-sheet hydrogen bonding (FIG. 2, FIG. 12, and FIGS. 13A-B). […] This can be inferred because the amide I region of parallel β-sheets harbors a single predominant signature (near 1630 cm^−1), while antiparallel sheets generally feature a second (minor) peak near ≈1680-1690 cm^−1. […] By correlating our IR observations with variations in AA sequence, it appears that amphiphilicity and a capacity for π-system interactions (e.g., π . . . π stacking and π . . . cation interactions with the benzyl side-chain of the central Phe) play a key role in self-assembly and hydrogel formation (FIG. 2).
# [3] = Rheology: storage modulus (G') from strain sweeps of peptide hydrogels; assay type: physicochemical; conditions: pH 7.4
# Protocol: as §1
# [4] = Electron microscopy (TEM, cryo-EM) of nanofiber morphology; assay type: physicochemical; conditions: for typical fiber / ribbon diameter: 1.5 wt % hydrogels at pH 7.4; for nanostructure morphology (TEM): 1.5 wt % in PBS at pH 7.4
# Protocol: 3.5 μL of peptide hydrogel was placed on a holey carbon grid (Protochips, Inc.). Three washes of deionized water, and three washes of 2% uranyl acetate staining solutions with 2 s blotting between each step was performed. Samples were analyzed on a Tecnai F20 equipped with a 4 k×4 k UltraScan CCD camera. Pitch and length were determined using Fiji (Schindelin, J. et al., Fiji: an open-source platform for biological-image analysis. Nat Methods 2012, 9 (7), 676-682, herein incorporated by reference in its entirety) and the FiberApp software package (Usov, I.; Mezzenga, R., FiberApp: An Open-Source Software for Tracking and Analyzing Polymers, Filaments, Biomacromolecules, and Fibrous Objects. Macromolecules 2015, 48 (5), 1269-1280, herein incorporated by reference in its entirety) was used to compute autocorrelation functions of intensity profiles.
# [5] = pH-responsive solubility of nongelling sequences; assay type: physicochemical
# [6] = Step-strain recovery / thixotropy test of hydrogel; assay type: physicochemical
# Protocol: as §1, with “Initially, samples were applied with 0.01% strain for 100 s followed immediately by a 100% strain for 50 s, and cycled 5 times.” left out
# [7] = Apparent viscosity versus shear rate (shear-thinning); assay type: physicochemical
# [8] = 1.5 wt. % hydrogel, thixotropy test, 200% strain (200 s), 400 s recovery, FIG. 21 legend
substance,measurement,setting,value
AYFIL-NH2 [AYFIL],viability and growth of OPCs encapsulated in hydrogel,[1],survived and grew
same,OPC proliferation (increase in DNA concentration),"[1]; 1.5 wt % hydrogel, 4 days",cells proliferate over the course of 4 days
same,live/dead staining of encapsulated OPCs,"[1]; 1.5 wt % hydrogel, day 1",majority of cells remained viable
same,time OPCs remained viable after encapsulation (ATP increase),[1]; 96 h,at least 4 days
same,time of culture to OPC process extension,[1]; without adhesion peptide sequences or native ECM proteins,≤ 2 days
same,hydrogel formation,[2],form hydrogels
same,storage modulus (G'),[3]; 1.5 wt % hydrogel,~1900 Pa
same,typical fiber / ribbon diameter,[4],≈ 10 nm
same,nanostructure morphology (TEM),[4],twisted fibrils
"KAFIL (KAFIL-NH2) [pentapeptide, C-terminally amidated, gels at pH>10]",gelation at high pH,[2]; pH>10,can gel
same,storage modulus (G'),[3]; 3 wt % hydrogel,200 Pa
same,nanostructure morphology (TEM),[4],spherical aggregates
KYAIL-NH2 [KYAIL],gelation as the pH was raised,[2],never gelled
same,solubility at low pH,[5],soluble
same,behavior as the pH was raised,[5],precipitated as an off-white powder
"KYFAL (KYFAL-NH2) [self-assembling pentapeptide, C-terminally amidated]",hydrogel formation,[2],form hydrogels
same,storage modulus (G'),[3]; 3 wt % hydrogel,133 Pa
same,typical fiber / ribbon diameter,[4],≈ 10 nm
same,nanostructure morphology (TEM),[4],"twisted ribbon morphologies, with longer and more infrequent pitch than KYFIL peptides"
KYFIA-NH2 [KYFIA],gelation as the pH was raised,[2],never gelled
same,solubility at low pH,[5],soluble
same,behavior as the pH was raised,[5],precipitated as an off-white powder
KYFIL-CO2H,hydrogel formation of carboxyl-terminated variant,[2]; pH 7.4,did not readily form hydrogels
KYFIL-NH2 [KYFIL],viability and growth of OPCs encapsulated in hydrogel,"[1]; 1.5 wt % hydrogel, ATP and DNA concentrations over time",poor cell viability
same,hydrogel formation,[2],form hydrogels
same,storage modulus (G'),[3]; 1.5 wt % hydrogel,8000 Pa
same,storage modulus (G'),[3]; 3 wt % hydrogel,17000 Pa
same,time to recover 90% of initial G',[6]; [8],3.5 min
same,time to recover 96% of initial G',[6]; [8],7 min
same,time to recover gel behavior (G'>G''),[6]; following 100% strain,≤ 14 s
same,time to recover 90% of initial G',[6]; results text (FIG. 21),3.4 min
same,time to recover 96% of initial G',[6]; results text (FIG. 21),7 min
same,twisted ribbon pitch,"[4]; 1.5 wt % hydrogel, pH 7.4, EM",ca. 132 nm
same,twisted ribbon width,"[4]; 1.5 wt % hydrogel, pH 7.4, EM",ca. 40 nm
same,typical fiber / ribbon diameter,[4],≈ 40 nm
same,nanostructure morphology (TEM),[4],twisted ribbon morphologies
same,nanostructure morphology (EM) in nongelling conditions,"[4]; 1.5 wt %, pH 4.6",amorphous peptide aggregates
same,periodicity of the fibrillar twist,"[4]; visual analysis and autocorrelation function of pixel intensity, TEM",~120 nm
KYFIV-NH2 [KYFIV],gelation as the pH was raised,[2],never gelled
same,solubility at low pH,[5],soluble
same,behavior as the pH was raised,[5],precipitated as an off-white powder
RGDKYFIL (RGDKYFIL-NH2) [8-mer peptide containing KYFIL],storage modulus (G'),[3]; 1.5 wt % hydrogel,~100 Pa
same,storage modulus (G'),[3]; 3 wt % hydrogel,~1000 Pa
same,shear-thinning behavior (apparent viscosity versus shear rate),[7],displays shear-thinning behavior
